Source: article PMC7497679, “Structure-based design, synthesis, and evaluation of the biological activity of novel phosphoroorganic small molecule IAP antagonists” (Investigational New Drugs, 2020)

Biological target: T1, cIAP1 (Homo sapiens, UniProt Q13490)
T1 construct: induce autoubiquitination and degradation of cIAP1 in MDA-MB-231 breast cancer cells; endogenous in cells; host or cells: MDA-MB-231
Experiment: Western blot analysis of cIAP1 autoubiquitination and proteasomal degradation in MDA-MB-231 cells
Assay type: cell-based
Settings: 10 µM, 15 and 120 min
Description: Prior to Western blot sample collection, cells were harvested by trypsinization, counted and seeded on 50 mm Petri dishes. After overnight incubation, the culture medium was replaced with fresh medium containing the tested compounds at the target concentration ranges with 0.1% (v/v) DMSO as a control. Next, the cells were washed with PBS and lysed with ice-cold RIPA buffer containing protease and phosphatase inhibitors (Sigma-Aldrich, Poznań, Poland), and after debris removal (4 °C, 15 min, 16,000 × g), the lysates were used in further experiments.
MDA-MB-231 cell lysates (25 µg of total protein/lane) were resolved by SDS-PAGE (4–12%, Tris-glycine, reducing conditions) and transferred onto a nitrocellulose membrane (0.45 µm pore size; Thermo Scientific, Gdańsk, Poland) using the semi-dry blotting system (Cleaver Scientific, Rugby, UK). The membrane was washed with 10 mM PBS (pH 7.4; 5 min, r.t.) and blocked with 5% skim milk in PBS supplemented with 0.05% Tween-20 (PBST) for 1 h at r.t. Subsequently, the membrane was washed with PBST (3 times for 5 min, r.t.) and incubated with rabbit anti-cIAP1 monoclonal IgG (1:1,000 in 0.5% skim milk in PBST; 4 °C, overnight; Cell Signaling Technology, Warszawa, Poland, Cat# 7065, D5G9). […]

T1 sequence (Q13490 whole entry): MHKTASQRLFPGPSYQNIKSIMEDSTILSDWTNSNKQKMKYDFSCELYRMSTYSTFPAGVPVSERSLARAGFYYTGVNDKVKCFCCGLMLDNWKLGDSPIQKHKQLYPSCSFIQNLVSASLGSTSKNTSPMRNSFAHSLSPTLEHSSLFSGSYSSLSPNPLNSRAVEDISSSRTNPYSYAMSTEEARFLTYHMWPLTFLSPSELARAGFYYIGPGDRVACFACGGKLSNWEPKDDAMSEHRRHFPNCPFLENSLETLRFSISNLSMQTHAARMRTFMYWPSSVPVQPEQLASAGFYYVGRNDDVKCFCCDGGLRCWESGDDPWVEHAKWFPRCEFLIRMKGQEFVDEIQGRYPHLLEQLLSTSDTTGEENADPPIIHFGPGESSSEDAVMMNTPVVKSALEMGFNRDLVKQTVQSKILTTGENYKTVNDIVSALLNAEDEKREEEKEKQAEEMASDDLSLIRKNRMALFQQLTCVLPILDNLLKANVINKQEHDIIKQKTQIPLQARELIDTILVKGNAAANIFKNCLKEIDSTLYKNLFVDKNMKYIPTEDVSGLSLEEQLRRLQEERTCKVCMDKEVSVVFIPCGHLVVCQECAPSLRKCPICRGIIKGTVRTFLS

Structure (SMILES)	induction of autoubiquitination and degradation of cIAP1
CN[C@@H](C)C(=O)N[C@H](C(=O)N1CCC[C@H]1C(=O)NC(Cc1ccccc1)P(=O)(Oc1ccccc1)Oc1ccccc1)C(C)C (stereo partly drawn) [Compound 41, diphenyl (1-((S)-1-((S)-3-methyl-2-((S)-2-(methylamino)propanamido)butanoyl)pyrrolidine-2-carboxamido)-2-phenylethyl)phosphonate]	greatest ability to induce cIAP1 degradation
CN[C@@H](C)C(=O)N[C@H](C(=O)N1CCC[C@H]1C(=O)NC(Cc1ccccc1)P(=O)(Oc1ccccc1)Oc1ccccc1)C1CCCCC1 (stereo partly drawn) [Compound 42, diphenyl (1-((S)-1-((S)-2-cyclohexyl-2-((S)-2-(methylamino)propanamido)acetyl)pyrrolidine-2-carboxamido)-2-phenylethyl)phosphonate]	greatest ability to induce cIAP1 degradation
